Test results published in patent US20090203701A1, “PROPHYLACTIC AND/OR THERAPEUTIC AGENT FOR RHEUMATOID ARTHRITIS” (KOWA CO., LTD, priority 2006, published 2009).

Test system: rat collagen-induced arthritis model
Test: Edema suppression in both hindlimbs, rat collagen-induced arthritis model
Format: in vivo
Parameters: key to Edema Index: sum of both hindlimb edema volumes on days 14, 18, 22, 26
Conditions: for Relative index: control group = 1.000; for Edema Index: average ± standard error
Description: For the cases of combined administration and respective single drug administrations of 2-benzyl-5-(4-chlorophenyl)-6-[4-(methylthio)phenyl]-2H-pyridazin-3-one and atorvastatin calcium hydrate, the effect of edema suppression in both hindlimbs was determined by the following method (rat collagen-induced arthritis model) (FDA, CBER, CDER, CDRH: Guidance for industry—Clinical development programs for drugs, devices, and biological products for the treatment of rheumatoid arthritis (RA)—.(1999)).
For the test animal, female Lewis rats (LEW/Crj) (obtained from Charles River Laboratories Japan, Inc.) were used.
For each 8-week-old LEW/Crj rat, the volume of a portion from the ankle to the toe tip of both hindlimbs (hereinafter, both hindlimbs volume) was measured by means of a plethysmometer for small animals (TK-101CMP, product of Unicom), and the total volume was taken as the both hindlimbs volume upon initiation of test (hereinafter, Pre value). This Pre value was used as an index to divide the rats into groups by randomized block design by the single variable, so that the values in the respective groups averaged out.
The collagen emulsion for sensitization that was used to induce arthritis in rats, was prepared by homogenizing a 0.3% Type II collagen solution (Collagen Research Center), Adjuvant Peptide (Peptide Institute, Inc.) and Adjuvant Incomplete Freund (DIFCO), using a Handy Micro Homogenizer (Microtec Nition, Co., Ltd.) under ice-cooling. The collagen emulsion thus prepared was intracutaneously administered at 10 sites in the back of each rat at a dose of 0.1 mL/site, to perform initial sensitization of the rat. Seven days after the initial sensitization, 0.12 mL of the same collagen emulsion was intracutaneously administered to the root of tail in each rat, to perform booster sensitization.
Drug administration was conducted from the day after the initial sensitization through 26 days thereafter. The group for sole administration of 2-benzyl-5-(4-chlorophenyl)-6-[4-(methylthio)phenyl]-2H-pyridazin-3-one (Drug A) was orally administered with the drug at 3 mg/kg, twice a day, in the morning (9:00 to 11:00) and in the evening (15:30 to 17:30). The group for sole administration of atorvastatin calcium hydrate (Drug B1) was orally administered with the drug at 30 or 100 mg/kg, once a day, in the afternoon (11:30 to 13:30). On the other hand, the group for combined administration of Drug A and Drug B1 was orally administered with Drug A at 3 mg/kg in the morning (9:00 to 11:00) and in the evening (15:30 to 17:30), and with Drug B1 at 30 or 100 mg/kg in the afternoon (11:30 to 13:30).
14, 18, 22 and 26 days after the initial sensitization, the both hindlimbs volume was measured again for each rat, and the difference between each of the values and the Pre value was determined to calculate the edema volume for both hindlimbs. The sum of the edema volumes for both hindlimbs measured 14, 18, 22 and 26 days after the initial sensitization was calculated as Edema Index, and this was taken as an index for the effects of the drugs.
Table 1 and FIG. 1 present the Edema Indices of the group for sole administration of 3 mg/kg of Drug A, the group for sole administration of 30 mg/kg of Drug B1, and the group for combined administration of both drugs. Furthermore, Table 2 and FIG. 2 present the Edema Indices of the group for sole administration of 3 mg/kg of Drug A, the group for sole administration of 100 mg/kg of Drug B1, and the group for combined administration of both drugs. The Edema Index is expressed in the average value±standard error of 8 rats in each group. Furthermore, the decrease rate is indicated as ((X−Y)/X)×100 (X: average Edema Index for control group, Y: average Edema Index for each group)

SMILES	Relative index (Table 1 experiment, sole Drug A 3 mg/kg orally twice a day)	Decrease rate (%) (Table 1 experiment, sole Drug A 3 mg/kg orally twice a day, vs control group Edema Index)	Edema Index (Table 1 experiment, sole administration of Drug A 3 mg/kg orally twice a day, day 1-26 after initial sensitization, sum of edema volumes on days 14, 18, 22, 26)	Relative index (Table 2 experiment, sole Drug A 3 mg/kg orally twice a day)	Decrease rate (%) (Table 2 experiment, sole Drug A 3 mg/kg orally twice a day, vs control group)	Edema Index (Table 2 experiment, sole administration of Drug A 3 mg/kg orally twice a day, day 1-26)	Relative index (Table 1 experiment, sole Drug B1 30 mg/kg orally once a day)	Decrease rate (%) (Table 1 experiment, sole Drug B1 30 mg/kg orally once a day, vs control group)	Edema Index (Table 1 experiment, sole administration of Drug B1 30 mg/kg orally once a day, day 1-26)	Relative index (Table 2 experiment, sole Drug B1 100 mg/kg orally once a day)	Decrease rate (%) (Table 2 experiment, sole Drug B1 100 mg/kg orally once a day, vs control group)	Edema Index (Table 2 experiment, sole administration of Drug B1 100 mg/kg orally once a day, day 1-26)	Effects on edema (Edema Index), in words (sole Drug B1 at the doses of 30 and 100 mg/kg)
CSc1ccc(-c2nn(Cc3ccccc3)c(=O)cc2-c2ccc(Cl)cc2)cc1 [Drug A, 2-benzyl-5-(4-chlorophenyl)-6-[4-(methylthio)phenyl]-2H-pyridazin-3-one]	0.935	6.5	5.23 ± 0.45	0.790	21.0	4.89 ± 0.57							
CC(C)c1c(C(=O)Nc2ccccc2)c(-c2ccccc2)c(-c2ccc(F)cc2)n1CC[C@@H](O)C[C@@H](O)CC(=O)O [Drug B1, atorvastatin calcium hydrate]							1.086	−8.6	6.07 ± 0.30	1.060	−6.0	6.57 ± 0.31	did not show any effects on edema
